{"source": "patent US12123009B2", "about": "“Methods and compositions for PPO herbicide tolerance in plants” (Monsanto Technology LLC, priority 2015, dated 2024)", "key": {"[1]": {"target": "Waterhemp (Amaranthus tuberculata) protoporphyrinogen oxidase (PPO), wild type", "test": "PPO enzyme assay (plastid extract)", "type": "biochemical", "conditions": "3 μM protogen; pH 7.4, 30° C.; read-out: S-3100 IC50"}, "[2]": {"target": "Maize (Zea mays) protoporphyrinogen oxidase (PPO), wild type", "test": "PPO enzyme assay (plastid extract)", "type": "biochemical", "conditions": "3 μM protogen; pH 7.4, 30° C.; read-out: S-3100 IC50"}, "[3]": {"test_system": "maize (LH244), non-transgenic or expressing H_N10 (SEQ ID NO:4)", "test": "Transgenic Maize Herbicide Tolerance I (R0 plants sprayed)", "type": "in vivo", "conditions": "7 days", "description": "The plant transformation constructs were annotated construct 1, 6, 11, and 16. For maize in planta testing, immature maize (LH244) embryos were transformed with using Agrobacterium tumefaciens and standard methods known in the art.\nLeaf samples were collected from R0 plants and screened by PCR to determine the number of copies of the transgene inserted into the plant genome. The plants containing a single copy (single copy) were selfed and outcrossed to generate R1 and F1 seed for future testing, respectively. Plants containing multiple copies (multi-copy) were sprayed as follows: (1) 5 g/ha S-3100 at approximately the V5 growth stage followed by 10 g/ha S-3100 at approximately the V7 growth stage, for a total application of 15 g/ha S-3100 or (2) 10 g/ha S-3100 at approximately the V5 growth stage. The average percentage of injury, on a scale of 0-100 with zero being no injury and 100 being complete crop death, was assessed 7 days after the final treatment for each batch."}, "[4]": {"test_system": "R0 transgenic soybean expressing HemG PPO with targeting peptide", "test": "R0 transgenic soybean herbicide tolerance: percent injury scores", "type": "in vivo", "conditions": "seven days", "description": "This permitted the side-by-side comparison of seven different HemG PPO enzymes with thirty-seven different targeting peptides using the same promoter and 3′UTR elements for gene expression. These plant transformation constructs were used to transform soybean excised embryos (germplasm A3555) using A. tumefaciens and standard methods known in the art. Four hundred explants were inoculated for each construct resulting in twelve containers per construct. A sterile PPO herbicide solution was used for herbicide tolerance testing. The herbicide solution consisted of 0.3 g of S-3100 in crop oil concentrate (5.0 mL) and 495 mL of deionized water. This was filtered through a 0.45 micron Nalgene® Rapid-Flow™ Tissue Culture Filter Unit and Surfactant-Free Cellulose Acetate membrane filter unit (VWR, Radnor, PA, USA). The resulting sterile solution was shaken before application.\nThe plantlets in the non-sprayed containers corresponding to constructs having a score of 2 were transplanted at approximately 7 weeks post transformation and grown as R0 plants using standard methods known in the art. Plantlets corresponding to non-tolerant scores of 0 and 1 were also grown to serve as negative controls. The R0 plants were grown in a greenhouse under long-day nursery conditions (18 hr light at 80° F. then 6 hr dark at 74° F.) for approximately four weeks. At eleven weeks, the R0 plants were sprayed with two passes of the same herbicide solution (0.3 g of 5-3100) described above. Herbicide injury ratings were collected seven days after treatment.\nThe results of the herbicide tolerance application at eleven weeks to the R0 plants confirmed the low percent injury rating scores observed in the high-throughput screen at five weeks. Any injury rating of 30% or above was equivalent to non-transgenic soybean injury ratings. A few of the constructs stood out as providing very good tolerance to the herbicide application. […] Data are provided in Table 10, where n.d. indicates the analysis was not conducted."}, "[5]": {"test_system": "leaf discs of soybean, non-transgenic or expressing H_N10 (SEQ ID NO: 4)", "test": "Leaf disc assay, soybean", "type": "in vivo", "conditions": "1 micromolar", "method": "A leaf-disc assay was employed for rapid and minimally damaging assessment of herbicide tolerance in transgenic plants expressing a recombinant PPO enzyme. Leaf tissue was sampled from the youngest fully-green leaf of corn and soybean plants. Five 4-mm diameter leaf discs were cut from the leaf samples using a disposable biopsy punch with a plunger (Integra® Miltex®, Inc., York. Pennsylvania) and the leaf discs were placed into one ml of incubation solution (1 mM MES, pH 6.5, 1% w/v sucrose, 1% (v/v) acetone) in 24-well polystyrene plates with lids. For herbicide tolerance analysis, S-3100 was added to the incubation solution to a final concentration of 1 micromolar. Vacuum infiltration was applied and plates of leaf discs were incubated in continuous darkness for one day at room temperature (23-24° C.) followed by one (soybean) or two (corn) days continuous light incubation under overhead fluorescent and incandescent bulbs (520 uE) at 26-27° C. Leaf disc injury was then scored visually on a scale from 0 (lowest injury) to 4 (highest injury), with lower scores indicating better tolerance to the PPO herbicide."}}}
{"smiles": "CCOC(=O)COc1ncccc1Oc1cc(-n2c(=O)cc(C(F)(F)F)n(C)c2=O)c(F)cc1Cl", "note": "[S-3100, ethyl [3-2-chloro-4-fluoro-5-(1-methyl-6-trifluoromethyl-2,4-dioxo-1,2,3,4-tetrahydropyrimidin-3-yl)phenoxy]-2-pyridyloxylacetate]", "values": [{"measurement": "IC50", "setting": "[1]", "value": 9, "unit": "nM"}, {"measurement": "IC50", "setting": "[2]", "value": 3, "unit": "nM"}, {"measurement": "Average Injury", "setting": "[3]; H_N10, construct 6, Treatment 1: 5 g/ha V5 then 10 g/ha V7 (15 g/ha total)", "value": 28.9, "unit": "%"}, {"measurement": "Average Injury", "setting": "[3]; H_N10, construct 16, Treatment 2: 10 g/ha V5", "value": 24.2, "unit": "%"}, {"measurement": "Average Injury", "setting": "[3]; nontransgenic, Treatment 1: 5 g/ha V5 then 10 g/ha V7 (15 g/ha total)", "value": 43.3, "unit": "%"}, {"measurement": "Average Injury", "setting": "[3]; nontransgenic, Treatment 2: 10 g/ha V5", "value": 26.7, "unit": "%"}, {"measurement": "percent injury score", "setting": "[4]; H_N20, TP6", "value": 15, "unit": "%"}, {"measurement": "percent injury score", "setting": "[4]; H_N20, TP7", "value": 20, "unit": "%"}, {"measurement": "percent injury score", "setting": "[4]; H_N30, TP1", "value": 5, "unit": "%"}, {"measurement": "percent injury score", "setting": "[4]; H_N40, TP1", "value": 5, "unit": "%"}, {"measurement": "percent injury score", "setting": "[4]; H_N40, TP4", "value": 15, "unit": "%"}, {"measurement": "percent injury score", "setting": "[4]; H_N40, TP7", "value": 40, "unit": "%"}, {"measurement": "percent injury score", "setting": "[4]; H_N40, TP8", "value": 30, "unit": "%"}, {"measurement": "percent injury score", "setting": "[4]; H_N50, TP6", "value": 40, "unit": "%"}, {"measurement": "percent injury score", "setting": "[4]; H_N90 (SEQ ID NO:11), TP20", "value": 5, "unit": "%"}, {"measurement": "percent injury score", "setting": "[4]; H_N90 (SEQ ID NO:11), TP32", "value": 50, "unit": "%"}, {"measurement": "percent injury score", "setting": "[4]; H_N90, TP1", "value": 3, "unit": "%"}, {"measurement": "percent injury score", "setting": "[4]; H_N90, TP2", "value": 35, "unit": "%"}, {"measurement": "percent injury score", "setting": "[4]; H_N90, TP3", "value": 30, "unit": "%"}, {"measurement": "percent injury score", "setting": "[4]; H_N90, TP6", "value": 25, "unit": "%"}, {"measurement": "percent injury score", "setting": "[4]; H_N90, TP7", "value": 15, "unit": "%"}, {"measurement": "percent injury score", "setting": "[4]; H_N90, TP8", "value": 40, "unit": "%"}, {"measurement": "percent injury score", "setting": "[4]; H_N100, TP1", "value": 15, "unit": "%"}, {"measurement": "percent injury score", "setting": "[4]; H_N100, TP6", "value": 30, "unit": "%"}, {"measurement": "percent injury score", "setting": "[4]; H_N100, TP7", "value": 30, "unit": "%"}, {"measurement": "leaf disc injury rating (0 lowest to 4 highest injury)", "setting": "[5]; H_N10, construct 1", "value": "zero"}, {"measurement": "leaf disc injury rating (0 lowest to 4 highest injury)", "setting": "[5]; H_N10, construct 11", "value": 1.6}, {"measurement": "leaf disc injury rating (0 lowest to 4 highest injury)", "setting": "[5]; non-transgenic", "value": 2.6}]}
